Where “and” joins values, the source holds several entries; their conditions need not be identical. Equal entries are not always repeated.
Columns and labels:
[1] = In vitro metabolic stability with rat liver microsomes and NADPH; format: in vitro ADME; details: rat liver microsomes + NADPH, 180 min
Procedure: (3B) LC/MS traces showing total ion counts as a function of incubation time.
These compounds were incubated with rat liver microsomes and NADPH, and non-metabolized compounds were quantified by ESI-LCMS. […] It is speculated that Ani-9 could be oxidized at the aryl methyl or N—N bond; or hydrolyzed at the amide or hydrazone linkages.
Compounds (each 10 uM) were incubated for specific time points (2, 5, 15, 30, 60, 180 min) with shaking at 37° C. with rat liver microsomes (1 mg protein/mL, Sigma-Aldrich, St. Louis, Mo.) in potassium phosphate butler (100 mM) containing 1 mM NADPH. The mixture was then chilled on ice, and 0.5 mL of ice-cold ethyl acetate was added. Samples were centrifuged for 15 min at 3000 RPM. The supernatant was evaporated to dryness, and the residue was dissolved in 80 μL of mobile phase (acetonitrile:/water, 3:1, containing 0.1% formic acid) for LC/MS. Reverse-phase HPLC separation was carried out using a Waters C18 column (2.1 mm×100 mm, […]) equipped with a solvent delivery system (Waters model 2690, Milford, Mass.).

SW-480 cells [2] = details: several tumor cell lines including SW480, reported; cited from earlier work
TMEM16A [3] = target: T1, TMEM16A (Homo sapiens, UniProt Q5XXA6); test: TMEM16A functional fluorescence plate reader (FPR) assay, iodide influx in FRT cells with YFP; format: cell-based; details: TMEM16A-expressing FRT cells, compound 10 min before iodide/ATP
T1 sequence (Q5XXA6 1-986): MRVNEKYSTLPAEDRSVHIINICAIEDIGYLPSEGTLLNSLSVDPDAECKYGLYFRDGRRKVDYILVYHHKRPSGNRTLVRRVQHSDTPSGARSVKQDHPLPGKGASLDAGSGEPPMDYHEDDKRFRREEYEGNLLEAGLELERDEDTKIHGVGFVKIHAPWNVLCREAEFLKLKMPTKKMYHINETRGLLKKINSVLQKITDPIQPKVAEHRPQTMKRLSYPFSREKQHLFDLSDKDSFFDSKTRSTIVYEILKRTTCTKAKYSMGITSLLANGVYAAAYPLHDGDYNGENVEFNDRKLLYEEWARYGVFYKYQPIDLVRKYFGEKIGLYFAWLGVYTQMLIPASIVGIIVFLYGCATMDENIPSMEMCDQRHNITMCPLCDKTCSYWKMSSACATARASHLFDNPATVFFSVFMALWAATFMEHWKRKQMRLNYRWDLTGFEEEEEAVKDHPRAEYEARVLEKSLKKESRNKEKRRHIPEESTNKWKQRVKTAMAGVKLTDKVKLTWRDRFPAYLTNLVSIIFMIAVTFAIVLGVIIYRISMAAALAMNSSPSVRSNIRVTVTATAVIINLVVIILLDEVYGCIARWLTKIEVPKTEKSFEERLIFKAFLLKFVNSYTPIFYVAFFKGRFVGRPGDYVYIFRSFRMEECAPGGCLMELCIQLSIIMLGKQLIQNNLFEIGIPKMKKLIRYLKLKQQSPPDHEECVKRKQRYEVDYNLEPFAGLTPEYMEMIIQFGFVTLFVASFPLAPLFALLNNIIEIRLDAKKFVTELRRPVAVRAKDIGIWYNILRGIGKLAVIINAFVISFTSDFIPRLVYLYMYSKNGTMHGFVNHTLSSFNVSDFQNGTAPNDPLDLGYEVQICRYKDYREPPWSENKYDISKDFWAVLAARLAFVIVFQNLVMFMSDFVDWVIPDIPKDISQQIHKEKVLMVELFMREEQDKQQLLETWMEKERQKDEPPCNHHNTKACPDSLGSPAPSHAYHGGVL
Procedure: A high-throughput screening assay was previously developed to identify small molecule inhibitors of TMEM16A. […] The assay involved addition of test compounds to the cells for 10 min in a physiological chloride-containing solution, followed by addition of an iodide solution containing ATP. TMEM16A-facilitated iodide influx was determined from the initial time course of decreasing YFP fluorescence.
2-Acylamino-cycloalkylthiophene-3-carboxylic acid arylamides 6aa-6bw were initially evaluated for inhibition of TMEM16A anion channel function using a cell-based functional plate reader assay as reported.
Yields (%) are of the isolated or purified products. IC50 (μM) for inhibition of TMEM16A anion conductance using a fluorescence plate reader (FPR) assay.
Cell lines and culture. Fischer Rat Thyroid (FRT) cells stably co-expressing TMEM16A, TMEM16B and human wild-type CFTR and the halide-sensitive yellow fluorescent protein (YFP)-H148Q were cultured as described. […] For plate reader assays, cells were plated in black 96-well microplates (Corning-Costar Corp., New York, N.Y.) at a density of 20,000 cells per well and assayed 24-48 hours after plating.
(§1) TMEM16A functional assay. TMEM16A functional plate-reader assay was done as previously described. […] Test compounds (0.5 μl in DMSO) were added to each well at specified concentration. […] The initial rate of I− influx following each of the solution additions was computed from fluorescence data by nonlinear regression. TMEM16B activity was assayed similarly as described using FRT cells co-expressing YFP and TMEM16B.

TMEM16A [4] = target: T1, TMEM16A; test: Short-circuit current assay in TMEM16A-expressing FRT cells; format: cell-based
Excerpt: Measurements were done in FRT cells expressing TMEM16A.
(§2) Concentration-dependent inhibition of TMEM16A measured by short-circuit current assay; TMEM16B and non-TMEM16 anion conductance measured using a fluorescence plate reader assay using FRT and HT-29 cells respectively; cell viability measured in FRT null cells.
Short-circuit current measurement. Short-circuit current measurements were done as described. (See Piechowicz, K. A. et al., J Enzyme Inhib Med Chem 2016, 1-7.) Briefly, Snapwell inserts (Corning Costar, Corning, N.Y.) containing TMEM16A-expressing FRT cells were mounted in Ussing chambers (Physiological instruments, San Diego, Calif.). The hemichambers were filled with 5 ml of HCO3^− buffered solution (basolateral) and half-Cl^− solution (apical), and the basolateral membrane was permeabilized with 250 μg/ml amphotericin B. Solutions were bubbled with 95% O2/5% CO2 and maintained at 37° C., and short-circuit current was measured on a DVC-1000 voltage clamp (World Precision Instruments Inc., Sarasota, Fla.) using Ag/AgCl electrodes and 3 M KCl agar bridges.

TMEM16B = target: T2, TMEM16B (Homo sapiens, UniProt Q9NQ90); test: TMEM16B fluorescence plate reader assay in FRT cells; format: cell-based
T2 construct: expressed in transfected cells; host or cells: Fischer Rat Thyroid (FRT) cells co-expressing YFP
T2 sequence (Q9NQ90 1-998): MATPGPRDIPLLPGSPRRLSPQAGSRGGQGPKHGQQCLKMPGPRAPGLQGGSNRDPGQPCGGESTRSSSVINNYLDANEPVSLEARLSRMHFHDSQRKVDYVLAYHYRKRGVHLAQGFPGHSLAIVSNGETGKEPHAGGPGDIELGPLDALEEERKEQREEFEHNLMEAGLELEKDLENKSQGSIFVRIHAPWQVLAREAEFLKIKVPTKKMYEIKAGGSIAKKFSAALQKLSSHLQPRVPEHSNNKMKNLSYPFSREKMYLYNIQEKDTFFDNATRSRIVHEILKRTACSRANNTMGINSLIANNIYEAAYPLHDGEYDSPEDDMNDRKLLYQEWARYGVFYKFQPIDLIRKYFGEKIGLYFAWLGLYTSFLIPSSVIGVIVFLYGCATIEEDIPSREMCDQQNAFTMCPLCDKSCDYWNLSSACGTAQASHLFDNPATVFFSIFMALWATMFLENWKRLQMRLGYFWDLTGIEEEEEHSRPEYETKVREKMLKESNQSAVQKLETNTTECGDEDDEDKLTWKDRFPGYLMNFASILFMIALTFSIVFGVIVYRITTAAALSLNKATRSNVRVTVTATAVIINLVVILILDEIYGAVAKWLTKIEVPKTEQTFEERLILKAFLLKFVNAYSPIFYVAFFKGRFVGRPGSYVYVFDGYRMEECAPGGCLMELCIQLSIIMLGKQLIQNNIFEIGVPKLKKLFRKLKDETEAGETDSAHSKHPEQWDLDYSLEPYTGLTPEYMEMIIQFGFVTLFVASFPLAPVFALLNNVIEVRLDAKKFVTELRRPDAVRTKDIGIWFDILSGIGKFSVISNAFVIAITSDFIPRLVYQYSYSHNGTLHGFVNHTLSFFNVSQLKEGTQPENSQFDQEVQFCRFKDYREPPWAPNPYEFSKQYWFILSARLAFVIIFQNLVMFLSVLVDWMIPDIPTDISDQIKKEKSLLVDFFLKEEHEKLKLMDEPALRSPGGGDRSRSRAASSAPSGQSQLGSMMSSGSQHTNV
Procedure: as §2
(§3) We further assayed the compound potency on endogenous non-TMEM16A. Ca^2+-activated Cl^− channel in HT-29 cells.
as §1

FRT null cells = test: Cytotoxicity by Alamar Blue assay in FRT cells; format: cell-based, rat; details: 8 h
Procedure: as §2, §3
Cytotoxicity. FRT cells were cultured overnight in black 96-well Costar microplates and incubated with 5 μM test compounds for 8 h. Cytotoxicity was measured by Alamar Blue assay (Invitrogen, Carlsbad, Calif.) as per the manufacturer's instructions.

SW-480 cells [5] = test: SW-480 cell proliferation, AlamarBlue after 72 h; format: cell-based; details: for IC50: Homo sapiens, SW480, AlamarBlue after 72 h of drug treatment, read-out: IC50 inhibition of SW-480 cell proliferation
Procedure: Compounds according to the present disclosure (structures shown in FIG. 5B) were tested for their inhibitory effect on proliferation of SW-480 cell line.
SW-480 cells were cultured on plastic in Leibovitz L15 medium supplemented with 10% fetal bovine serum, 2 mM L-glutamine, 100 units/mL penicillin, and 100 μg/mL streptomycin. The cells were incubated at 37° C. without CO2.
SW-480 cells were plated into black 96-well microplates (Corning-Costar Corp., New York, N.Y.) at 10% seeding. The cells were treated with test compounds dissolved in DMSO in serial dilution while maintaining the final concentration of DMSO at 0.5%. Plated cells were then incubated for 72 h at 37° C. Cell proliferation was quantified using the AlamarBlue assay (Invitrogen, Carlsbad, Calif.) as per the manufacturer's instructions. Data was normalized against untreated control cells that were lysed for 10 minutes using Triton-X100 (0.1% in PBS).

Which “Degradation (in words)” value [1] does the source give for `COc1ccccc1/C=N/NC(=O)COc1ccc(Cl)cc1C` [Ani-9, reference compound] here?
Its value is “near complete degradation”.

Which “Concentrations reported to inhibit proliferation of TMEM16A-expressing tumor cell lines” value (SW-480 cells [2]) does the source give for `CC(C)(C)C1CCc2c(sc(NC(=O)c3ccco3)c2C(=O)O)C1` (stereo not drawn) [CaCCinh-A01, 6-t-butyl-2-(furan-2-carboxamido)-4,5,6,7-tetrahydrobenzo[b] thiophene-3-carboxylic acid] here?
The value was 10 to 20 µM.

Which IC50 (TMEM16A [3]) does the source give for `CCC(=O)Nc1sc2c(c1C(=O)Nc1ccccc1)CCCCC2` [Compound 6ah, 2-Propionylamino-5,6,7,8-tetrahydro-4H-cyclohepta[b]thiophene-3-carboxylic acid phenylamide] here?
The IC50 was 1200 nM.

For `O=C(Nc1ccccc1F)c1c(NC(=O)C(F)(F)F)sc2c1CCCCC2` [Compound 6aj, 2-(2,2,2-Trifluoro-acetylamino)-5,6,7,8-tetrahydro-4H-cyclohepta[b]thiophene-3-carboxylic acid (2-fluoro-phenyl)-amide], which IC50 (TMEM16A [3]) is on record?
The IC50 was 1300 nM.

With `Cc1ccc(NC(=O)c2c(NC(=O)C(F)(F)F)sc3c2CCCC3)cc1` [Compound 6aw, 2-(2,2,2-Trifluoro-acetylamino)-4,5,6,7-tetrahydro-benzo[b]thiophene-3-carboxylic acid p-tolylamide] as the compound, how does the IC50 (TMEM16A [3]) read?
The IC50 was 200 to 300 nM and 220 nM.

Which results are given for `Cc1ccccc1NC(=O)c1c(NC(=O)C(F)(F)Cl)sc2c1CCCCC2` [Compound 6bk, 2-(2-Chloro-2,2-difluoro-acetylamino)-5,6,7,8-tetrahydro-4H-cyclohepta[b]thiophene-3-carboxylic acid o-tolylamide]?
IC50 (TMEM16A [3]): 80 to 180 nM and 180 nM; IC50 (TMEM16A [4]): 230 nM; IC50 (TMEM16B): 400 nM; Cellular survival % at 5 μM (FRT null cells): 98%; IC50 (SW-480 cells [5]): 750 nM

With `Cc1ccccc1NC(=O)c1c(NC(=O)C(F)(F)I)sc2c1CCCCC2` [Compound 6bn, 2-(2,2-Difluoro-2-iodo-acetylamino)-5,6,7,8-tetrahydro-4H-cyclohepta[b]thiophene-3-carboxylic acid o-tolylamide] as the compound, how does the IC50 (TMEM16A [3]) read?
The IC50 was 600 nM.

And the IC50 (TMEM16A [4])?
Its IC50 is 730 nM.

What about the IC50 (TMEM16B) of the same compound?
Its IC50 is 1400 nM.

And the “Cellular survival % at 5 μM” value (FRT null cells)?
Its value is 96%.

With `O=C(Nc1ccccc1)c1c(NC(=O)C(F)(F)Cl)sc2c1CCCCC2` [Compound 6bo, 2-(2-Chloro-2,2-difluoro-acetylamino)-5,6,7,8-tetrahydro-4H-cyclohepta[b]thiophene-3-carboxylic acid phenylamide] as the compound, how does the IC50 (TMEM16A [3]) read?
Its IC50 is 925 nM.

With `O=C(Nc1ccccc1OC(F)(F)F)c1c(NC(=O)C(F)(F)I)sc2c1CCC2` [Compound 6bw, 2-(2,2-Difluoro-2-iodo-acetylamino)-5,6-dihydro-4H-cyclopenta[b]thiophene-3-carboxylic add (2-trifluoromethoxy-phenyl)-amide] as the compound, how does the IC50 (TMEM16A [3]) read?
The IC50 was 1880 nM.

What does the source list for `COc1ccc(Cl)cc1NC(=O)c1c(NC(=O)C(F)(F)F)sc2c1CCCCC2` [am1_47, N-(5-chloro-2-methoxyphenyl)-2-(2,2,2-trifluoroacetamido)-5,6,7,8-tetrahydro-4H-cyclohepta[b]thiophene-3-carboxamide]?
IC50 (SW-480 cells [5]): 470 nM; Potency in inhibiting proliferation of SW480 cells compared with CaCCinh-A01 (in words) (SW-480 cells [5]; SW480 cells): considerably more potent than CaCCinh-A01
